The record followed here is patent publication US20170106101A1, “METHODS INVOLVING MACROPHAGE TUMOR CELL FUSION HYBRIDS” (OREGON HEALTH & SCIENCE UNIVERSITY, priority 2015, published 2017).

Assay type in all cases: cell-based, mouse
The subject of one experiment is MC38 cells. The experiment is described as follows: Growth responsiveness to cytokines and soluble factors (MTS, confluence, viability). Particulars: increasing concentrations of cytokine. The method, then:
(§1) In vitro-derived hybrid proliferation. For phenotypic profiling growth responsiveness to cytokines and soluble factors, 95 different cytokines or soluble signaling molecules were distributed at high, medium and low concentrations in 384 well plates, in 25 μl of RPMI (Life Technologies, NY) supplemented with 1% FBS; and 25 μl of a 1.2×10^4 cells/ml suspension of hybrid or MC-38 cells in DMEM+4% FBS was added to each well. 99 wells of each plate were left cytokine-free and no cells were added to two of these wells, which served to provide measurements of background signal. Plates were cultured in a humidified incubator for 72 hours, after which 5 ul of MTS reagent was added to each well. Two hours later, absorbance at 490 nm was read with a 384-well plate reader. For each plate, absorbance values for each cytokine-treated well were normalized to the mean absorbance of the cytokine-free wells on that plate, and expressed in terms of standard deviations from the cytokine-free mean. Three independent hybrid isolates and three MC38 replicates were analyzed. […] In these experiments, 2.5×10^4 hybrid or MC38 cells were plated in the presence of three different concentrations for each soluble factor, or in media alone (DMEM+2.5% FBS), in triplicate for each condition. Plates were imaged every two hours for 90 hours, and then cell viability was assessed.

Experiment [1] has as its system MC38-derived hybrid cells. The description is as above. Conditions: increasing concentrations of cytokine; MC38-derived hybrids. Here is the method:
as §1

The subject of experiment [2] is unfused MC38 cancer cells. The experiment is described as follows: Transwell chemotaxis assay towards ligand. Conditions: ligand 25 ng/ml. Here is the method: (§2) Chemotaxis assay. Chemotaxis assays were performed using IncuCyte™ Chemotaxis Cell Migration Assay (Essen) with at least three technical replicates of triplicate samples. Briefly, 1000 cancer cells were plated in the top wells in DMEM+0.2% FBS after incubation in serum-free media for 20 h. Csf1 or Sdf1 ligand (25 ng/mL) was added to the bottom well and cells were incubated at 37° C. for at least 36 hours with live-imaging. The neutralizing antibodies to the Csf1R (eBioscience), Cxcr4 (Biolegend) and isotype control antibody were added to the top and bottom well (2.5 ng/μL). Migration was quantified by measuring phase contrast area of the top and bottom wells for each timepoint using IncuCyte ZOOM® software. Triplicates of each condition were performed, and the means and standard deviations were calculated. p<0.02 for hybrids treated with Csf1 or Sdf1 relative to hybrids without Csf1 or Sdf1 by unpaired t-test. Two independent hybrid isolates were analyzed. Technical octupulicates (MC38) or sextuplicates (B16F10) with biologic quadruplicates or triplicates were analyzed. For inhibitor studies technical duplicates with biologic triplicates were analyzed.

Experiment [3] has as its system MC38-derived fusion hybrids. The experiment is described as follows: Transwell chemotaxis assay towards ligand. Particulars: ligand 25 ng/ml. Here is the method: as §2
In experiment [4] the test system is B16F10 cancer cell hybrids. Briefly: Transwell chemotaxis assay towards ligand. Particulars: ligand 25 ng/ml. The method, then:
as §2

As for Tnf-α, the “effect on MC38 proliferation / growth” value in the experiment on MC38 cells is given as “profound inhibitory effect”. Besides, in experiment [1], the “effect on hybrid proliferation / growth” value was “resistant”.
Turning to “Sdf1: strongly chemotactic lymphocyte cytokine, ligand of Cxcr4”, the “migration of unfused MC38 cells towards ligand” value in experiment [2] is reported as “incapable of responding”. Also, in experiment [3], the “migration of fusion hybrids towards ligand” value is listed as “migrated towards”.

B1: Hgf: Hepatic growth factor, cytokine tested for growth effect on MC38 and hybrid cells (protein, UniProt Q08048 33-495; Q08048 496-728, looked up)
Hepatocyte growth factor …: QKKRRNTLHEFKKSAKTTLTKEDPLLKIKTKKVNSADECANRCIRNRGFTFTCKAFVFDKSRKRCYWYPFNSMSSGVKKGFGHEFDLYENKDYIRNCIIGKGGSYKGTVSITKSGIKCQPWNSMIPHEHSFLPSSYRGKDLQENYCRNPRGEEGGPWCFTSNPEVRYEVCDIPQCSEVECMTCNGESYRGPMDHTESGKTCQRWDQQTPHRHKFLPERYPDKGFDDNYCRNPDGKPRPWCYTLDPDTPWEYCAIKTCAHSAVNETDVPMETTECIQGQGEGYRGTSNTIWNGIPCQRWDSQYPHKHDITPENFKCKDLRENYCRNPDGAESPWCFTTDPNIRVGYCSQIPKCDVSSGQDCYRGNGKNYMGNLSKTRSGLTCSMWDKNMEDLHRHIFWEPDASKLNKNYCRNPDDDAHGPWCYTGNPLIPWDYCPISRCEGDTTPTIVNLDHPVISCAKTKQLR
Hepatocyte growth factor beta …: VVNGIPTQTTVGWMVSLKYRNKHICGGSLIKESWVLTARQCFPARNKDLKDYEAWLGIHDVHERGEEKRKQILNISQLVYGPEGSDLVLLKLARPAILDNFVSTIDLPSYGCTIPEKTTCSIYGWGYTGLINADGLLRVAHLYIMGNEKCSQHHQGKVTLNESELCAGAEKIGSGPCEGDYGGPLICEQHKMRMVLGVIVPGRGCAIPNRPGIFVRVAYYAKWIHKVILTYKL
In the case of B1, the “effect on MC38 proliferation / growth” value in the experiment with MC38 cells was “moderate, dose-dependent growth-suppressing effect”.

B2: Csf1: ligand of colony stimulating factor 1 receptor, used as chemoattractant (protein, UniProt P07141 33-552, looked up)
Macrophage colony-stimulating …: KEVSEHCSHMIGNGHLKVLQQLIDSQMETSCQIAFEFVDQEQLDDPVCYLKKAFFLVQDIIDETMRFKDNTPNANATERLQELSNNLNSCFTKDYEEQNKACVRTFHETPLQLLEKIKNFFNETKNLLEKDWNIFTKNCNNSFAKCSSRDVVTKPDCNCLYPKATPSSDPASASPHQPPAPSMAPLAGLAWDDSQRTEGSSLLPSELPLRIEDPGSAKQRPPRSTCQTLESTEQPNHGDRLTEDSQPHPSAGGPVPGVEDILESSLGTNWVLEEASGEASEGFLTQEAKFSPSTPVGGSIQAETDRPRALSASPFPKSTEDQKPVDITDRPLTEVNPMRPIGQTQNNTPEKTDGTSTLREDHQEPGSPHIATPNPQRVSNSATPVAQLLLPKSHSWGIVLPLGELEGKRSTRDRRSPAELEGGSASEGAARPVARFNSIPLTDTGHVEQHEGSSDPQIPESVFHLLVPGIILVLLTVGGLLFYKWKWRSHRDPQTLDSSVGRPEDSSLTQDEDRQVELPV
Regarding B2, the “migration of unfused MC38 cells towards ligand” value in experiment [2] was “incapable of responding”. Moreover, the “migration of B16F10 hybrids towards ligand” value in experiment [4] is “low response”. Also, in experiment [3], the “migration of fusion hybrids towards ligand” value is “migrated towards”.
